{"source": "patent US20100087623A1", "about": "“Method of extracting proteins and peptides from nano pearl powder” (priority 2008, published 2010)", "test_system": "tyrosinase (tyramine acid enzyme)", "experiment": "Inhibition of tyrosinase (tyramine acid enzyme) activity, dopachrome growth", "format": "biochemical", "details": "2 mg/mL or 1 mg/mL, 37° C., pH 6.8", "method": "Pearl powder solution is subjected to filter by employing a device called Centriprep YM3. […] In this experiment, effects of tyrosinase activation (i.e., dopachrome growth) caused by each of soluble organic compound extract of nono pearl powder and soluble organic compound extract of micro pearl powder are evaluated. Also, for pearl powder of the same effects of tyrosinase activation caused by organic compounds having a molecular weight more than 5 kDa and by organic compounds having a molecular weight less than 5 kDa are evaluated.\nReferring to FIG. 11 and Table 7 again, experiment conditions are concentration of 1 mg/mL, temperature of 37° C., and pH value of 6.8.", "note": "“And” between values parts separate entries of the source, which are not always exact repeats. Equal entries are not always repeated.", "data": [{"compound": "OC[C@H]1O[C@@H](Oc2ccc(O)cc2)[C@H](O)[C@@H](O)[C@@H]1O", "note": "[arbutin]", "values": [{"measurement": "Inhibition (%) of tyramine acid enzyme (dopachrome growth)", "setting": "0 minute", "result": "0 ± 0", "unit": "%"}, {"measurement": "Inhibition (%) of tyramine acid enzyme (dopachrome growth)", "setting": "5 minute", "result": "36.5 ± 1.9", "unit": "%"}, {"measurement": "Inhibition (%) of tyramine acid enzyme (dopachrome growth)", "setting": "10 minute", "result": "48.6 ± 0.7", "unit": "%"}, {"measurement": "Inhibition (%) of tyramine acid enzyme (dopachrome growth)", "setting": "15 minute", "result": "54.3 ± 1.0", "unit": "%"}, {"measurement": "Inhibition (%) of tyramine acid enzyme (dopachrome growth)", "setting": "30 minute", "result": "53% and 54.7 ± 0.9%"}, {"measurement": "Inhibition (%) of tyramine acid enzyme (dopachrome growth)", "setting": "45 minute", "result": "37.1 ± 1.3", "unit": "%"}, {"measurement": "Inhibition (%) of tyramine acid enzyme (dopachrome growth)", "setting": "60 minute", "result": "21% and 21.6 ± 1.9%"}]}]}
